Holding throughout (type): in vivo
In series [1] the test system is soybean. The series can be described thus: Test Example 5: effect on crop by foliage application, plastic box (symbol d). Particulars: 320 g/ha, 3 weeks after application. Summed up:
(§1)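 Crop and weed seeds sown in spots in sterilized diluvial soil in plastic boxes and covered with about 1.5 cm soil. Plants raised in a greenhouse at 25° C. to 30° C. for foliar application.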

The subject of a further series is Chenopodium album. The series can be described thus: Test Example 5: herbicidal effect by foliage application, plastic box (symbol O). Particulars: 320 g/ha, 3 weeks after application. Summed up:
(§2)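 Greenhouse foliar test: seedlings at 14 days, grown 25° C. to 30° C. in sterilized diluvial soil; compound applied as an aqueous dilution of an emulsion; response read 3 weeks after spraying.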

A further series relates to Veronica persica. The series can be described thus: Test Example 5: herbicidal effect by foliage application, plastic box (symbol R). Particulars: 320 g/ha, 3 weeks after application. The gist of the method:
as §2

The subject of series [2] is wheat. Nature of the series: Test Example 4: effect on crop by soil treatment (symbol e). Particulars: for e: wheat, effect on crop grade: application herbicide amount 320 g/ha; for e: wheat, effect grade on crop: 320 g/ha. Summed up:
(§3)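 Diluvial soil (sterilized) in boxes; seeds placed spot-wise alongside weed species; ~1.5 cm covering soil. Greenhouse, 25–30° C.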

Another series has as its system Monochoria vaginalis. Nature of the series: Test Example 1: herbicidal activity, application before weed generation in submerged conditions (symbol C). Particulars: application herbicide amount 320 g/ha. The gist of the method:
(§4)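 Application before weed emergence: an aqueous dilution of the emulsion formulation was poured onto the surface of 4 cm-deep floodwater on the day of sowing. Effect was judged after 3 weeks (greenhouse, 25–30 °C).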

Series [3] relates to directly sowed rice plant. Nature of the series: Test Example 3: effect on crop by foliage application, Wagner pot (symbol b). Particulars: application herbicide amount 320 g/ha; for b (directly sowed rice plant) effect on crop grade: Table 24. The gist of the method: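 Alluvial soil in a 1/10000-are Wagner pot was flooded to a water depth of 0.1–0.5 cm. Echinochloa crus-galli var. crus-galli, Leptochloa chinensis, Cyperus difformis and rice were sown into it and grown in a greenhouse at 25–30 °C.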

The test system of series [4] is wheat. The series can be described thus: Test Example 5: effect on crop by foliage application, plastic box (symbol e). Particulars: 320 g/ha, 3 weeks after application. Summed up: as §1
The subject of series [5] is Echinochloa crus-galli var. crus-galli. The series can be described thus: Test Example 5: herbicidal effect by foliage application, plastic box (symbol H). Particulars: 320 g/ha, 3 weeks after application. The gist of the method:
as §2

Series [6] has as its system Echinochloa oryzacola Vasing. The series can be described thus: Test Example 1: herbicidal activity, application before weed generation in submerged conditions (symbol A). Particulars: application herbicide amount 320 g/ha. The gist of the method: as §4
The next series deals with beet. The series can be described thus: Test Example 5: effect on crop by foliage application, plastic box (symbol f). Particulars: 320 g/ha, 3 weeks after application. Summed up:
as §1

The test system of a further series is rapeseed. The series can be described thus: Test Example 4: effect on crop by soil treatment (symbol g). Particulars: for g: rapeseed, effect on crop grade: application herbicide amount 320 g/ha; for g: rapeseed, effect grade on crop: 320 g/ha. Summed up:
as §3

In a further series the test system is Galium spurium. Nature of the series: Test Example 5: herbicidal effect by foliage application, plastic box (symbol Q). Particulars: 320 g/ha, 3 weeks after application. Summed up:
as §2

For another series, the system named is Lolium multiflorum Lam. The series can be described thus: Test Example 5: herbicidal effect by foliage application, plastic box (symbol K). Particulars: 320 g/ha, 3 weeks after application. Summed up: as §2
The test system of series [7] is soybean. Nature of the series: Test Example 4: effect on crop by soil treatment (symbol d). Particulars: for d: soybean, effect on crop grade: application herbicide amount 320 g/ha; for d: soybean, effect grade on crop: 320 g/ha. The gist of the method: as §3
The test system of a further series is Digitaria ciliaris. Nature of the series: Test Example 4: herbicidal effect by soil treatment (symbol F). The gist of the method:
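Seeds were sown in sterilized diluvial soil, covered with about 1.5 cm of soil, and the soil surface was sprayed with a water-diluted emulsion of the compound at a predetermined rate. Plants grew in a greenhouse at 25° C. to 30° C.; effects were scored visually 3 weeks after application.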

The test system of another series is Amaranthus retroflexus. Nature of the series: Test Example 5: herbicidal effect by foliage application, plastic box (symbol N). Particulars: 320 g/ha, 3 weeks after application. Summed up:
as §2

[8] abbreviates: application herbicide amount 320 g/ha.

Four molecules from patent US11000033B2, “Ketone or oxime compound, and herbicide” (NISSAN CHEMICAL CORPORATION, priority 2014, dated 2021) can be followed below.

As to `CON=C(CC1CC(OC(=O)N2CCOCC2)=C(c2c(C)cc(C)cc2OC)C1=O)C1CC1` (mixture of isomers) [13-005], the “d: soybean, effect on crop grade” value with soybean [1] and with soybean [7] was 0 (Herbicidal ratio of 5% or lower (almost no effect)) in each case. In the series with Chenopodium album, the “O: Chenopodium album, herbicidal effect grade” value is given as 0 (Herbicidal ratio of 5% or lower (almost no effect)). The “R: Veronica persica, herbicidal effect grade” value in the series with Veronica persica was 0 (Herbicidal ratio of 5% or lower (almost no effect)). Also, the “e: wheat, effect on crop grade” value in the series with wheat [2] is 1 (Herbicidal ratio of 5% or higher and lower than 20%); with wheat [4], 5 (Herbicidal ratio of 90% or more (almost completely withered)). Also, the “C (Monochoria vaginalis) herbicidal effect grade” value in the series with Monochoria vaginalis is 2 (Herbicidal ratio of 20% or higher and lower than 40%). Also, the “b (directly sowed rice plant) effect on crop grade” value in series [3] is on record as 5 (Herbicidal ratio of 90% or more (almost completely withered)). Also, in series [5], the “H: Echinochloa crus-galli var. crus-galli, herbicidal effect grade” value was 5 (Herbicidal ratio of 90% or more (almost completely withered)). For the same molecule, the “A (Echinochloa oryzacola Vasing.) herbicidal effect grade” value in series [6] was 5 (Herbicidal ratio of 90% or more (almost completely withered)). Further, in the series on beet, the “f: beet, effect on crop grade” value is on record as 0 (Herbicidal ratio of 5% or lower (almost no effect)). Further, the “g: rapeseed, effect on crop grade” value in the series with rapeseed is 0 (Herbicidal ratio of 5% or lower (almost no effect)). Besides, in the series with Galium spurium, the “Q: Galium spurium, herbicidal effect grade” value was 0 (Herbicidal ratio of 5% or lower (almost no effect)). Moreover, the “K: Lolium multiflorum Lam., herbicidal effect grade” value in the series with Lolium multiflorum Lam. is listed as 5 (Herbicidal ratio of 90% or more (almost completely withered)). The “F: Digitaria ciliaris, herbicidal effect grade” value (“F: Digitaria ciliaris” below) in the series on Digitaria ciliaris (setting [8]) is 4 (Herbicidal ratio of 70% or higher and lower than 90%). In the series with Amaranthus retroflexus, the “N: Amaranthus retroflexus, herbicidal effect grade” value was 0 (Herbicidal ratio of 5% or lower (almost no effect)).
For `CON=C(CC1CC(O)=C(c2c(C)cc(C)cc2C)C1=O)c1ccc(F)cc1` (stereo not shown) [1-133], the “d: soybean, effect on crop (criteria 0-5)” value with soybean [1] is 3 (Herbicidal ratio of 40% or higher and lower than 70%). In addition, the “O: Chenopodium album, herbicidal effect (criteria 0-5)” value in the series on Chenopodium album was 0 (Herbicidal ratio of 5% or lower (almost no effect)). Also, in the series with Veronica persica, the “R: Veronica persica, herbicidal effect (criteria 0-5)” value was 3 (Herbicidal ratio of 40% or higher and lower than 70%). Further, the “e: wheat, effect grade on crop” value with wheat [2] is given as 0 (Herbicidal ratio of 5% or lower (almost no effect)). In addition, the “Herbicidal effect grade, C: Monochoria vaginalis” value in the series on Monochoria vaginalis is recorded as 0 (Herbicidal ratio of 5% or lower (almost no effect)). In [3], the “effect on crop b (directly sowed rice plant), grade 0-5” value is listed as 0 (Herbicidal ratio of 5% or lower (almost no effect)). In addition, in the series on wheat [4], the “e: wheat, effect on crop (criteria 0-5)” value is 0 (Herbicidal ratio of 5% or lower (almost no effect)). For the same molecule, the “H: Echinochloa crus-galli var. crus-galli, herbicidal effect (criteria 0-5)” value in series [5] was 4 (Herbicidal ratio of 70% or higher and lower than 90%). Also, the “Herbicidal effect grade, A: Echinochloa oryzacola Vasing.” value in [6] was 4 (Herbicidal ratio of 70% or higher and lower than 90%). Moreover, in the series on beet, the “f: beet, effect on crop (criteria 0-5)” value is 3 (Herbicidal ratio of 40% or higher and lower than 70%). For the same molecule, in the series with rapeseed, the “g: rapeseed, effect grade on crop” value is on record as 0 (Herbicidal ratio of 5% or lower (almost no effect)). Besides, in the series on Galium spurium, the “Q: Galium spurium, herbicidal effect (criteria 0-5)” value is recorded as 0 (Herbicidal ratio of 5% or lower (almost no effect)). In addition, the “K: Lolium multiflorum Lam., herbicidal effect (criteria 0-5)” value in the series on Lolium multiflorum Lam. is on record as 5 (Herbicidal ratio of 90% or more (almost completely withered)). Further, the “d: soybean, effect grade on crop” value in the series on soybean [7] is 4 (Herbicidal ratio of 70% or higher and lower than 90%). The “F: Digitaria ciliaris” value in the series with Digitaria ciliaris (320 g/ha) is 4 (Herbicidal ratio of 70% or higher and lower than 90%). Moreover, the “N: Amaranthus retroflexus, herbicidal effect (criteria 0-5)” value with Amaranthus retroflexus was 0 (Herbicidal ratio of 5% or lower (almost no effect)).
In the case of `CON=C(CC1CC(O)=C(c2c(C)cc(C)cc2OC)C1=O)C1CC1` (mixture of isomers) [13-002], the “d: soybean, effect on crop grade” value with soybean [1] was 2 (Herbicidal ratio of 20% or higher and lower than 40%); in the series on soybean [7], 1 (Herbicidal ratio of 5% or higher and lower than 20%). The “O: Chenopodium album, herbicidal effect grade” value in the series on Chenopodium album is given as 5 (Herbicidal ratio of 90% or more (almost completely withered)). Moreover, the “R: Veronica persica, herbicidal effect grade” value in the series with Veronica persica is 4 (Herbicidal ratio of 70% or higher and lower than 90%). In addition, the “e: wheat, effect on crop grade” value is 3 (Herbicidal ratio of 40% or higher and lower than 70%) with wheat [2]; 5 (Herbicidal ratio of 90% or more (almost completely withered)) in the series with wheat [4]. Besides, the “C (Monochoria vaginalis) herbicidal effect grade” value in the series on Monochoria vaginalis is given as 0 (Herbicidal ratio of 5% or lower (almost no effect)). Further, the “b (directly sowed rice plant) effect on crop grade” value in series [3] was 5 (Herbicidal ratio of 90% or more (almost completely withered)). In addition, in [5], the “H: Echinochloa crus-galli var. crus-galli, herbicidal effect grade” value is 5 (Herbicidal ratio of 90% or more (almost completely withered)). In addition, in series [6], the “A (Echinochloa oryzacola Vasing.) herbicidal effect grade” value is 5 (Herbicidal ratio of 90% or more (almost completely withered)). Also, the “f: beet, effect on crop grade” value with beet is 3 (Herbicidal ratio of 40% or higher and lower than 70%). Also, in the series with rapeseed, the “g: rapeseed, effect on crop grade” value is 1 (Herbicidal ratio of 5% or higher and lower than 20%). Also, in the series with Galium spurium, the “Q: Galium spurium, herbicidal effect grade” value is 4 (Herbicidal ratio of 70% or higher and lower than 90%). Also, the “K: Lolium multiflorum Lam., herbicidal effect grade” value with Lolium multiflorum Lam. was 5 (Herbicidal ratio of 90% or more (almost completely withered)). Besides, the “F: Digitaria ciliaris” value in the series on Digitaria ciliaris (setting [8]) is reported as 5 (Herbicidal ratio of 90% or more (almost completely withered)). Besides, the “N: Amaranthus retroflexus, herbicidal effect grade” value with Amaranthus retroflexus is reported as 0 (Herbicidal ratio of 5% or lower (almost no effect)).
Turning to `CC(CC1CC(O)=C(c2c(C)cc(C)cc2C)C1=O)=NOCC[S+](C)[O-]` (stereo not shown) [1-125], the “d: soybean, effect on crop (criteria 0-5)” value in the series on soybean [1] is given as 0 (Herbicidal ratio of 5% or lower (almost no effect)). Moreover, in the series with Chenopodium album, the “O: Chenopodium album, herbicidal effect (criteria 0-5)” value was 1 (Herbicidal ratio of 5% or higher and lower than 20%). In the series with Veronica persica, the “R: Veronica persica, herbicidal effect (criteria 0-5)” value is 2 (Herbicidal ratio of 20% or higher and lower than 40%). Further, the “e: wheat, effect grade on crop” value in the series on wheat [2] was 3 (Herbicidal ratio of 40% or higher and lower than 70%). Moreover, in the series on Monochoria vaginalis, the “Herbicidal effect grade, C: Monochoria vaginalis” value was 1 (Herbicidal ratio of 5% or higher and lower than 20%). Moreover, in series [3], the “effect on crop b (directly sowed rice plant), grade 0-5” value is reported as 5 (Herbicidal ratio of 90% or more (almost completely withered)). The “e: wheat, effect on crop (criteria 0-5)” value in the series with wheat [4] is on record as 5 (Herbicidal ratio of 90% or more (almost completely withered)). For the same molecule, in series [5], the “H: Echinochloa crus-galli var. crus-galli, herbicidal effect (criteria 0-5)” value was 5 (Herbicidal ratio of 90% or more (almost completely withered)). For the same molecule, the “Herbicidal effect grade, A: Echinochloa oryzacola Vasing.” value in series [6] is 3 (Herbicidal ratio of 40% or higher and lower than 70%). For the same molecule, in the series with beet, the “f: beet, effect on crop (criteria 0-5)” value is listed as 0 (Herbicidal ratio of 5% or lower (almost no effect)). Besides, in the series on rapeseed, the “g: rapeseed, effect grade on crop” value was 0 (Herbicidal ratio of 5% or lower (almost no effect)). Also, in the series with Galium spurium, the “Q: Galium spurium, herbicidal effect (criteria 0-5)” value was 3 (Herbicidal ratio of 40% or higher and lower than 70%). Also, the “K: Lolium multiflorum Lam., herbicidal effect (criteria 0-5)” value with Lolium multiflorum Lam. is reported as 5 (Herbicidal ratio of 90% or more (almost completely withered)). Also, in the series with soybean [7], the “d: soybean, effect grade on crop” value is 0 (Herbicidal ratio of 5% or lower (almost no effect)). The “F: Digitaria ciliaris” value with Digitaria ciliaris (320 g/ha) is listed as 5 (Herbicidal ratio of 90% or more (almost completely withered)). Besides, the “N: Amaranthus retroflexus, herbicidal effect (criteria 0-5)” value in the series with Amaranthus retroflexus is reported as 0 (Herbicidal ratio of 5% or lower (almost no effect)).
